Where a name gives a salt, the structure may show the parent alone.
Target: T1, recombinant human Estrogen Receptor alpha ligand binding domain, residues 307-554 (ER alpha-LBD (GST)) (Homo sapiens, UniProt P03372)
T1 construct: made in house
T1 sequence (P03372 307-554): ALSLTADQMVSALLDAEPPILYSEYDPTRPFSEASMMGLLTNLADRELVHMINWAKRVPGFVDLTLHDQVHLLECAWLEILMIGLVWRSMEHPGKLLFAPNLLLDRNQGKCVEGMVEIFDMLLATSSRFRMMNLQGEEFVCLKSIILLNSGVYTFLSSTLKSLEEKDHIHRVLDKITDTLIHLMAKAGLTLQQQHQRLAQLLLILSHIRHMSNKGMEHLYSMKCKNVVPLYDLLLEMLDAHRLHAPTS
Test: ERα binding assay (LanthaScreen TR-FRET competition)
Conditions: TR-FRET competition with Fluormone ES2 tracer, 4 hours at room temperature; single experiment or average of two or more

SMILES: CC[C@H](C)[C@H](N)C(=O)O[C@@H]1C[C@@H](C(=O)NCc2ccc(-c3scnc3C)cc2)N(C(=O)[C@@H](NC(=O)COCCOCCOCCOc2cc(F)c([C@@H]3c4[nH]c5ccccc5c4C[C@@H](C)N3CC(C)(C)F)c(F)c2)C(C)(C)C)C1 [Example 99, (3R,5S)-1-((S)-2-(2-(2-(2-(2-(3,5-Difluoro-4-((1R,3R)-2-(2-fluoro-2-methylpropyl)-3-methyl-2,3,4,9-tetrahydro-1H-pyrido[3,4-b]indol-1-yl)phenoxy)ethoxy)ethoxy)ethoxy)acetamido)-3,3-dimethylbutanoyl)-5-((4-(4-methylthiazol-5-yl)benzyl)carbamoyl)pyrrolidin-3-yl L-isoleucinate Formate]
- IC50: 1.2 nM

SMILES: Cc1ncsc1-c1ccc(CNC(=O)[C@@H]2C[C@@H](OC(=O)[C@H](C)NC(=O)[C@@H](N)C(C)C)CN2C(=O)[C@@H](NC(=O)COCCOCCOCCOc2cc(F)c([C@@H]3c4[nH]c5ccccc5c4C[C@@H](C)N3CC(C)(C)F)c(F)c2)C(C)(C)C)cc1 [Example 100, (3R,5S)-1-((S)-2-(2-(2-(2-(2-(3,5-Difluoro-4-((1R,3R)-2-(2-fluoro-2-methylpropyl)-3-methyl-2,3,4,9-tetrahydro-1H-pyrido[3,4-b]indol-1-yl)phenoxy)ethoxy)ethoxy)ethoxy)acetamido)-3,3-dimethylbutanoyl)-5-((4-(4-methylthiazol-5-yl)benzyl)carbamoyl)pyrrolidin-3-yl L-valyl-L-alaninate Formate]
- IC50: 0.8 nM
